Results taken from patent publication US10960005B2, “Treatment of relapsed and/or refractory solid tumors and non-hodgkin's lymphomas” (CELGENE QUANTICEL RESEARCH, INC., priority 2016, dated 2021).
Where two headings read alike, the source gives them in different places.

Legend:
[1] = tested on: LXFS 573 SCLC patient-derived xenograft; format: in vivo
NCI-H1417 SCLC xenograft = format: in vivo
[2] = Etoposide at 24 mg/kg/day SC days 1-3 + Vehicle
[3] = etoposide monotherapy 24 mg/kg SC
[4] = etoposide monotherapy 24 mg/kg SC QD×3

COc1cc([C@@H]2c3cc4c(cc3[C@@H](O[C@@H]3O[C@@H]5CO[C@@H](C)O[C@H]5[C@H](O)[C@H]3O)[C@H]3COC(=O)[C@H]23)OCO4)cc(OC)c1O [Etoposide, etoposide, reference compound]
% TGD [1, 2]: 50% | T-C [1, 2]: 21 days | median TTE [1, 2]: 63 days | SS (number of study survivors) ([1]; Etoposide at 24 mg/kg/day SC days 1-3 + Vehicle, Day 133, N=8): 0 (na) | % TGD [1, 3]: 50% | TGD [1, 3]: 21 days | % TGD (NCI-H1417 SCLC xenograft; 24 mg/kg Etoposide SC QD × 3): 92% | T-C (NCI-H1417 SCLC xenograft; 24 mg/kg Etoposide SC QD × 3): 24 days | median TTE (NCI-H1417 SCLC xenograft; 24 mg/kg Etoposide SC QD × 3): 50 days | % TGD (NCI-H1417 SCLC xenograft; [4]): 92% | TGD (NCI-H1417 SCLC xenograft; [4]): 24 days
